Measured values reported in patent publication EP2050458A1, “IL24 for inducing hyperproliferative or autoimmune cell death” (INSTITUT NATIONAL DE LA SANTE ET DE LA RECHERCHE MEDICALE …, priority 2007, dated 2009).
Where a SMILES comes first, the peptide text is derived from it. The star is where a group is joined. Cbz = O=C(OCc1ccccc1)*; CH2F = FC*

What was measured:
Format in all cases: cell-based, human
CLL B-cells = assay: Cell cycle analysis by Propidium Iodide staining and FACS; conditions: inhibitor added with IL24 to cells cultured overnight with IL2 (IL2+IL24+inhibitor); vs 3.36 ± 1.3% without inhibitor
Description: For apoptosis studies, cells were stained either with the Apo 2.7-PE mAb (Beckman-Coulter, Villepinte, France) on ice for 15 min, washed and resuspended on 300 µl of PBS 1X supplemented with 0,1% BSA or with the Annexin V-FITC apoptosis detection kit (Becton Dickinson Biosciences, Le-Pont-de-Claix, France), 1x10^5 cells in 100 µl 1X binding buffer were stained with 5 µl of Annexin V-FITC and 5 µl Propidium Iodide (PI) in the dark for 15 min at room temperature (RT). 400 µl of 1X binding buffer was added before fluorescence-activated cell sorted (FACS) analysis. For cell cycle analysis 1x10^6 cells were washed with cold PBS1X and resuspended in 1ml EtOH 70% and kept on ice for at least 10 min. Cells were then centrifuged and the pellet resuspended in 1ml PBS 1X + RNAse (40 µg) Saint-Quentin Fallavier, France) + Propidium Iodide (18 µl) at room temperature. […]
Fluorescence was measured using a FACScan flow cytometer (BD Biosciences), and data analysis was performed using CellQuest software (BD Biosciences).
It was next determined whether the inhibition of thymidine incorporation by B-cells reflected cell cycle block and/or apoptosis. […] The respective percentages of hypodiploid (apoptotic) cells, and of cells in G0-G1, S and G2-M cell cycle phase, and finally of hyperdiploid cells were evaluated (M1 to M4 populations respectively in figure 3a). […]

P-stat3 = assay: Stat3 phosphorylation (Phospho-Y705 stat3) by western blot and immunostaining in CLL cells
Description: For pervanadate experiments, fresh CLL cells were preincubated or not with IL2 overnight, then incubated or not with pervanadate 25 µM during 5 min and stimulated or not with IL24 for 10 min and lysed as previously described. Blots were hybridyzed with anti phospho-Tyr 705-STAT3 (B-7) MAb (Tebu-bio), dehybridyzed and reblotted with anti STAT3 MAb (BD Transduction Laboratories).
Stat3 was strongly and stably phosphorylated in cells incubated overnight with IL2 as evidenced by hybridization with an anti Phospho-Y705 stat3 MAb. In contrast, phospho(P)-stat5 disappeared and total stat5 diminished in the cytosol of cells incubated overnight with IL2, presumably due to dimerization and translocation to the nucleus (Paukku et al. Cytokine Growth Factor Rev. 2004. 6:435-55).
Cells were therefore incubated or not for 5 min with […] pervanadate (PV), an inhibitor of protein tyrosine phosphatase activity (Heffetz and Bushkin H. J Biol Chem. 1990. 265:2896-902) and stimulated 10 min with IL24 on cells preincubated or not with IL2. Cytospin and western blot experiments were performed.
Troglitazone (TG) is an activator of protein-tyrosine phosphatase (PTP)-1B that reduced P-Y705-stat3 and promoted apoptosis in human primary gliomas (Akasaki et al. J Biol Chem. 2005. 281:6165-74). TG was therefore used to determine if it is able to stimulate p53 expression and apoptosis in CLL. […]

CLL cells = assay: CLL cell survival in culture (trypan blue cell count, cell cycle analysis); conditions: culture for > 30 min
Description: • Figure 1. rIL24 protects CLL B-cells from death in culture. • a) CLL cells (2x10^6/ml) were cultured in complete medium (•) or with 100 ng/ml rIL24 (▲) every 7 days and cells counted using trypan blue exclusion. % living cells was calculated in each sample (mean ± SD, n=8). b) Cell scatter, Apoptosis shown by Apo 2.7-PE staining, and cell cycle shown by PI staining from one representative sample (CLL 70) at day 21. M1: hypodiploid (apoptotic cells) M2: cells into G0/G1, M3: cells into S+G2+M, M4: hyperdiploid cells. • Figure 2. rIL24 inhibits thymidine incorporation in activated CLL cells. • a) IL24 was added to IL2-cultured cells as in figure 1, one day before (d-1) at the same time (d0) or one day after (d=1) IL2. b) IL24 was added to CLL cells cultured for 24 h with IL2, IL2+CD40-Ligand or anti-IgM+CD40-Ligand. Tymidine (0.5 mCi/ml) was added at day 3 for 15 h. […] Mean ± SD (n=8) of the M1 to M4 populations calculated as in (a) from CLL cells cultured with IL2 (hatched histogram) or IL2 then IL24 (white histogram). […] RNA was extracted at day 3, reverse-transcribed, amplified and analyzed by real-time PCR. […]

Question: `Cc1ccc(C(=O)Cn2c3c(sc2=N)CCCC3)cc1` [Pft-a, Pifithrin] was tested. Which “cells in S/G2/M” value (CLL B-cells) did it give?
Answer: 6.44 ± 2.2%

Question: `Cc1c(C)c2c(c(C)c1O)CCC(C)(COc1ccc(CC3SC(=O)NC3=O)cc1)O2` (centres unmarked) [TG, Troglitazone] was tested. Which “total Stat3 expression” value (P-stat3; IL2-cultured CLL cells) did it give?
Answer: no effect

Question: For `COC(=O)C[C@H](NC(=O)[C@H](C)NC(=O)[C@@H](NC(=O)OCc1ccccc1)C(C)C)C(=O)CF` [zvad, ZVAD-fmk] (Cbz-Val-Ala-Asp(OMe)-CH2F), which “cells in S/G2/M” value (CLL B-cells) is on record?
Answer: 4.8 ± 1.77%

Question: What does the source list for pervanadate [PV]?
Answer: IL24-mediated inhibition of P-Stat3 (P-stat3; 5 min with 25 µM pervanadate, then 10 min IL24): antagonized; toxicity in culture (CLL cells): too toxic
